A short description of data set [1]: Degree of decrease in blood glucose after intraduodenal administration with insulin in rats. The format is in vivo, rat (Male SD rats). To be noted: male SD rats, 1.5 mg/10 body weight with insulin 1.25 U/10 g, mean. How it is done:
Each (Administration: 1.5 mg/10 body weight) of the absorption promoters, phenylalanine derivatives as previously listed in the table was dissolved or suspended in 0.01M phosphate buffer (pH 7.5) and the solution or suspension was mixed with aqueous insulin (Administation: 1.25 U/10 g body weight) solution. Male SD rats, 6 weeks old, were intraduodenally administrated with predetermined amounts of the mixtures after being incised abdominally. The incised wounds were sutured quickly. A predetermined duration later, the percent decreases in blood glucose were determined. In the experiment, four rats a group were used, and the experiment was repeated 2 to 5 times. The mean values of the thus obtained data were described in the table.

Data set [2] is described as follows: Oral insulin absorption in female ICR-CD-1 mice: percent decrease in blood glucose and degree of elevation of blood insulin. The format is in vivo, mouse (Female ICR-CD-1 mice). The settings on record: vs control group. On the procedure: The absorption promoter samples listed in Table 2 were dissolved or suspended in 0.5% CMC-0.05M tris-HCl buffers (pH: 7.8) and the solutions or suspensions were mixed with aqueous insulin solution. Female ICR-CD-1 mice 5 to 7 weeks old were orally administered predetermined amounts of the mixtures. A predetermined duration later, the percent decrease in blood glucose and the degree of elevation of blood insulin as compared with the control group were measured. The symbol "Z" in the structural formulas in the table represents a benzyloxycarbonyl group. The upper figures in the columns "effectiveness" represent the percent decrease in blood glucose and the lower parenthesized figures indicate the degree of elevation in blood insulin.

The nature of data set [3]: Toxicity studies of phenylalanine derivatives, oral, in female CD-1(ICR) mice. The settings on record: mouse, in vivo, suspended in 0.5% CMC. An excerpt:
Toxicity Studies of Phenylalanine Derivatives with Oral IN Potentiating Activity in Female CD-1(ICR) Mice are as follows:
Phenylalanine derivatives were suspended in 0.5% CMC.

The nature of data set [4]: Usefulness as absorption promoter. The settings on record: statement in words, no data.
[5] abbreviates: sample 6.0 mg/10 g with insulin 2.5 U/10 g, 30 minutes.
Where [6] appears, read: sample 6.0 mg/10 g with insulin 2.5 U/10 g, 60 minutes.

The source of these data is patent US4670584A, “Pharmaceutical composition having an excellent absorption property” (Ajinomoto Company Incorporated, priority 1986, dated 1987).

Structures are written as SMILES. Residues, ends and D or L forms follow the SMILES beside them. *: point of attachment. Cbz = O=C(OCc1ccccc1)*

Consider `O=C(C=Cc1cccc(Cl)c1)N[C@@H](Cc1ccccc1)C(=O)O` [Sample S-43, N-(3-chlorocinnamoyl)-L-phenylalanine], for which the “Decrease in Blood Glucose” value worked out at 50.9% in data set [1] (30 minutes) and 46.9% in data set [1] (60 minutes). The matching figures for `O=C(C=Cc1cccc(Cl)c1)N[C@H](Cc1ccccc1)C(=O)O` [Sample S-44, N-(3-chlorocinnamoyl)-D-phenylalanine]: 55.0% and 49.3%. On to `O=C(COc1ccc([N+](=O)[O-])cc1)NC(Cc1ccc([N+](=O)[O-])cc1)C(=O)O` (racemic) [Sample S-2, N-[(4-nitrophenoxy)acetyl]-4-nitro-DL-phenylalanine], for which the “Decrease in Blood Glucose” value in data set [2] (setting [5]) was 23.2%.

Take `O=C(CCCc1ccccc1)N[C@@H](Cc1ccccc1)C(=O)O` [Sample S-8, N-(4-phenylbutyroyl)-L-phenylalanine]: the “Decrease in Blood Glucose” value in data set [2] (setting [5]) was 57.1%; in data set [2] (setting [6]) it was 35.6%. As to `O=C(COc1cccc2ccccc12)N[C@@H](Cc1ccccc1)C(=O)O` [Sample S-11, N-[(1-naphthoxy)acetyl]-L-phenylalanine], the LD50 in data set [3] was > 4000 mg/kg. In the case of `Cc1ccc(C=CC(=O)N[C@H](Cc2ccccc2)C(=O)O)cc1` [Sample S-47, N-(4-methylcinnamoyl)-D-phenylalanine], the figures for the “Decrease in Blood Glucose” value in data set [1] (30 minutes) and in data set [1] (60 minutes) were 52.3% and 41.0%, respectively. In the case of `O=C(N[C@H](Cc1ccccc1)C(=O)O)OCc1ccccc1` [Sample S-18, N-benzyloxycarbonyl-D-phenylalanine], in data set [3], the LD50 is > 4000 mg/kg.

Take `O=C(N[C@H](Cc1ccccc1)C(=O)O)C(F)=Cc1ccccc1` [Sample S-48, N-(α-fluorocinnamoyl)-D-phenylalanine]: the “Decrease in Blood Glucose” value was 73.7% in data set [1] (30 minutes) and 72.9% in data set [1] (60 minutes).

Take `O=C(C=Cc1cccc2ccccc12)N[C@@H](Cc1ccccc1)C(=O)O` [Sample S-45, N-(1-naphthylacryloyl)-L-phenylalanine]: the results for the “Decrease in Blood Glucose” value in data set [1] (30 minutes) and in data set [1] (60 minutes) were 41.2% and 35.4%, respectively. The matching figures for `Cc1cccc(C=CC(=O)N[C@H](Cc2ccccc2)C(=O)O)c1` [Sample S-42, N-(3-methylcinnamoyl)-D-phenylalanine]: 48.8% and 40.7%.

On to `O=C(C=Cc1ccc2ccccc2c1)N[C@@H](Cc1ccccc1)C(=O)O` [Sample S-37, N-(2-Naphthylacryloyl)-L-phenylalanine], for which the figures for the “Decrease in Blood Glucose” value in data set [1] (30 minutes) and in data set [1] (60 minutes) were 55.3% and 40.2%, respectively. As to `N[C@@H](Cc1ccccc1)C(=O)O` [Phenylalanine], the “usefulness as absorption promoter” value in data set [4] is on record as “not useful as absorption promoters”. As for `O=C(C=Cc1ccc2ccccc2c1)N[C@H](Cc1ccccc1)C(=O)O` [Sample S-38, N-(2-Naphthylacryloyl)-D-phenylalanine], the figures for the “Decrease in Blood Glucose” value in data set [1] (30 minutes) and in data set [1] (60 minutes) were 27.0% and 24.7%, respectively. The like results for `CCc1ccc(C=CC(=O)N[C@@H](Cc2ccccc2)C(=O)O)cc1` [Sample S-39, N-(4-ethylcinnamoyl)-L-phenylalanine] were, in that order, 56.0% and 32.5%. Regarding `O=C(N[C@@H](Cc1ccc(O)cc1)C(=O)O)OCc1ccccc1` [Sample S-16, N-benzyloxycarbonyl-L-tyrosne], in data set [2] (setting [6]), the “Decrease in Blood Glucose” value was 27.2%. Take `O=C(COc1ccc(Cl)cc1)N[C@@H](Cc1ccccc1)C(=O)O` [Sample S-13, N-[(4-chlorophenoxy)acetyl]-L-phenylalanine]: the LD50 in data set [3] was > 3500 mg/kg.

Take `O=C(COc1ccccc1)N[C@@H](Cc1ccccc1)C(=O)O` [Sample S-5, N-phenoxyacetyl-L-phenylalanine]: the LD50 in data set [3] was > 4000 mg/kg.

For the compound `O=C(C=Cc1ccccc1)N[C@@H](Cc1ccccc1)C(=O)O` [Sample S-3, N-cinnamoyl-L-phenylalanine], the LD50 in data set [3] is > 2500 mg/kg. With `CCc1ccc(C=CC(=O)N[C@H](Cc2ccccc2)C(=O)O)cc1` [Sample S-40, N-(4-ethylcinnamoyl)-D-phenylalanine], the “Decrease in Blood Glucose” value in data set [1] (30 minutes) is recorded as 33.9%; in data set [1] (60 minutes), 28.1%. Take `O=C(NC(Cc1ccc(F)cc1)C(=O)N[C@@H](Cc1ccccc1)C(=O)O)OCc1ccccc1` (mixture of isomers) [Sample S-22, N-benzyloxycarbonyl-4-fluoro-DL-phenylalanyl-L-phenylalanine]: the “Decrease in Blood Glucose” value in data set [2] (sample 3.0 mg/10 g with insulin 2.5 U/10 g, 30 minutes) is recorded as 63.1%.

As to `Cc1cccc(C=CC(=O)N[C@@H](Cc2ccccc2)C(=O)O)c1` [Sample S-41, N-(3-methylcinnamoyl)-L-phenylalanine], the “Decrease in Blood Glucose” value in data set [1] (30 minutes) was 50.5%; in data set [1] (60 minutes), 35.3%.

Consider `O=C(N[C@H](Cc1ccccc1)C(=O)O)C(Cl)=Cc1ccccc1` [Sample S-50, N-(α-Chlorocinnamoyl)-D-phenylalanine 1/2C2 H5 OH], for which the “Decrease in Blood Glucose” value was 79.0% in data set [1] (30 minutes) and 74.9% in data set [1] (60 minutes). Take `O=C(COc1ccc2ccccc2c1)N[C@@H](Cc1ccccc1)C(=O)O` [Sample S-12, N-[(2-naphthoxy)acetyl]-L-phenylalanine]: in data set [3], the LD50 was > 4000 mg/kg.

On to `O=C(C=Cc1cccc2ccccc12)N[C@H](Cc1ccccc1)C(=O)O` [Sample S-46, N-(1-naphthylacryloyl)-D-phenylalanine], for which the “Decrease in Blood Glucose” value in data set [1] (30 minutes) was 41.6%; in data set [1] (60 minutes), 28.8%. The matching figures for `O=C(N[C@@H](Cc1ccccc1)C(=O)O)C(Cl)=Cc1ccccc1` [Sample S-49, N-(α-Chlorocinnamoyl)-L-phenylalanine 1/2C2 H5 OH]: 63.2% and 49.1%.

As to `O=C(N[C@@H](Cc1ccccc1)C(=O)N[C@@H](Cc1ccccc1)C(=O)O)OCc1ccccc1` [Sample S-7, N-benzyloxycarbonyl-L-phenylalanyl-L-phenylalanine] (Cbz-Phe-Phe-OH), the LD50 in data set [3] was > 3000 mg/kg. Still for that read-out and setting: next, `COc1ccc(COC(=O)N[C@@H](Cc2ccccc2)C(=O)O)cc1` [Sample S-17, N-(4-methoxybenzyloxycarbonyl)-L-phenylalanine]: 750 mg/kg. Regarding `CC(=O)N[C@@H](Cc1ccccc1)C(=O)O` [N-acetylphenylalanine], the “usefulness as absorption promoter” value in data set [4] is listed as “not useful as absorption promoters”. Consider `O=C(N[C@@H](Cc1ccccc1)C(=O)N[C@@H](Cc1ccc(O)cc1)C(=O)O)OCc1ccccc1` [Sample S-10, N-benzyloxycarbonyl-L-phenylalanyl-L-tyrosine] (Cbz-Phe-Tyr-OH), for which the LD50 in data set [3] is > 3000 mg/kg. Same read-out and setting: next, `O=C(N[C@@H](Cc1ccccc1)C(=O)O)OCc1ccccc1` [Sample S-15, N-benzyloxycarbonyl-L-phenylalanine]: > 2750 mg/kg.

A word on the LD50: it is the dose expected to kill half of the subjects tested.
